{
  "source": "paper PMC11915811",
  "about": "“Conformational activation and disulfide exchange in HIV-1 Env induce cell-free lytic/fusogenic transformation and enhance infection” (Journal of Virology, 2025)",
  "key": {"JRFL pseudovirus [1]": {"system": "JRFL pseudovirus", "assay": "Cell-free lysis of JRFL pseudovirus, p24 release detected by ELISA", "conditions": "2 h at 37°C; for Lysis of JRFL pseudovirus in conjunction with Trx1 (in words): 1,000 nM compound + serial dilutions of Trx1; for p24 leakage from JRFL pseudovirus with thiol compound in place of Trx1: 1,000 nM KR13b + 1,000 nM free cysteine or glutathione, mean of three independent experiments"}, "gp120": {"molecular_target": "gp120", "conditions": "read-out: Kd, gp120 binding affinity, cited from earlier work"}, "BaL.01 pseudovirus": {"system": "BaL.01 pseudovirus", "assay_type": "cell-based, HIV-1", "conditions": "1,000 nM Trx1; HOS CD4+ CCR5+ cells; normalized to pseudovirus + PBS"}, "JRFL pseudovirus [2]": {"system": "JRFL pseudovirus", "assay_type": "cell-based, HIV-1", "conditions": "1,000 nM Trx1; HOS CD4+ CCR5+ cells; normalized to pseudovirus + PBS"}, "VSV pseudovirus": {"system": "VSV pseudovirus", "assay_type": "cell-based, vesicular stomatitis virus"}, "HXB2 pseudovirus": {"system": "HXB2 pseudovirus", "assay_type": "cell-based, HIV-1", "conditions": "1,000 nM Trx1; HOS CD4+ CCR5+ cells; normalized to pseudovirus + PBS"}},
  "note": "Entries after “also recorded” stand apart in the source; their conditions may differ. Where two headings read alike, the source gives them in different places.",
  "data": [
    {"molecule": "COc1ccnc2[nH]cc(C(=O)C(=O)N3CCN(C(=O)c4ccccc4)C[C@H]3C)c12", "note": "[BMS-806]", "values": [
      {"measurement": "Lysis of JRFL pseudovirus in conjunction with Trx1 (in words)", "setting": "JRFL pseudovirus [1]", "value": "did not"},
      {"measurement": "Kd", "setting": "gp120; SPA (scintillation proximity assay)", "value": "21.1 ± 1.9", "unit": "nM"}
    ]},
    {"molecule": "CNCc1ccc2c(c1)C[C@H](CN=C(N)N)[C@H]2NC(=O)C(=O)Nc1ccc(Cl)c(F)c1.O=C(O)C(F)(F)F.O=C(O)C(F)(F)F", "note": "[BNM-III-170]", "values": [
      {"measurement": "Lysis of JRFL pseudovirus in conjunction with Trx1 (in words)", "setting": "JRFL pseudovirus [1]", "value": "did cause lysis"},
      {"measurement": "Kd", "setting": "gp120; ITC", "value": 47, "unit": "nM"}
    ]},
    {"molecule": "N[C@@H](CS)C(=O)O", "note": "[cysteine]", "values": [
      {"measurement": "p24 leakage from JRFL pseudovirus with thiol compound in place of Trx1", "setting": "JRFL pseudovirus [1]", "value": "Neither thiol compound caused leakage of p24 above background"}
    ]},
    {"molecule": "N[C@@H](CCC(=O)N[C@@H](CS)C(=O)NCC(=O)O)C(=O)O", "note": "[glutathione]", "values": [
      {"measurement": "p24 leakage from JRFL pseudovirus with thiol compound in place of Trx1", "setting": "JRFL pseudovirus [1]", "value": "Neither thiol compound caused leakage of p24 above background"}
    ]},
    {"molecule": "Trx1: recombinant human thioredoxin-1, purchased from Cayman Chemical (protein) MVKQIESKTAFQEALDAAGDKLVVVDFSATWCGPCKMIKPFFHSLSEKYSNVIFLEVDVDDCQDVASECEVKCMPTFQFFKKGQKVGEFSGANKEKLEATINELV", "values": [
      {"measurement": "Enhancement of pseudovirus infectivity (RLU) by exogenous Trx1", "setting": "BaL.01 pseudovirus", "value": "at least doubling its RLU values"},
      {"measurement": "Enhancement of pseudovirus infectivity (RLU) by exogenous Trx1", "setting": "JRFL pseudovirus [2]", "value": "at least doubling its RLU values"},
      {"measurement": "p24 release / lysis of JRFL pseudovirus by the component alone (control)", "setting": "JRFL pseudovirus [1]; serial dilutions of the single component, no partner", "value": "no significant p24 release; also recorded: negligible lysis"},
      {"measurement": "Effect of preincubating virus with one component on lysis (order of addition)", "setting": "JRFL pseudovirus [1]; virus preincubated with 1,000 nM of labelled component for 0–30 min, then 1,000 nM of the other (KR13b or Trx1) added, versus no preincubation", "value": "significant decrease in lytic effect at 10 min"},
      {"measurement": "Enhancement of VSV infection by Trx1", "setting": "VSV pseudovirus", "value": "10–40%"},
      {"measurement": "Enhancement of pseudovirus infectivity (RLU) by exogenous Trx1", "setting": "HXB2 pseudovirus", "value": "at least doubling its RLU values"}
    ]}
  ]
}
